As usually defined, the EC50 is the concentration needed to bring the measured effect to its halfway point. Read a low EC50 as an effect from little substance.

In one test the target is V2 receptor (Homo sapiens, UniProt P30518). As to the kind of experiment: Determination of V2 receptor agonist activity in vitro (cellular activation). The format is cell-based. To be noted: concentration of compound necessary to cause a half-maximal cellular activation. The protocol: Determination of V2r Ceptor Agonist Activity in Vitro
Sequence of V2 receptor (P30518 whole entry): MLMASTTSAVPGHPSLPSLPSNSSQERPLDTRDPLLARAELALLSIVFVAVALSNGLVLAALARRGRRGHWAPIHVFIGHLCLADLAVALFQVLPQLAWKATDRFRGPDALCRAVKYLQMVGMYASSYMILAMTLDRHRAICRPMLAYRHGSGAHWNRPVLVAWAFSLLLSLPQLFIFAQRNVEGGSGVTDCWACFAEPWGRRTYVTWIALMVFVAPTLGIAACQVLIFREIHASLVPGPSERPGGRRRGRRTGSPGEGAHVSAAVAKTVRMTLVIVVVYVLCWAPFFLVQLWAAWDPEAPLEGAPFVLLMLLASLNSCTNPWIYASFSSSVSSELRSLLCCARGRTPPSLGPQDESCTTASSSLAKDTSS
Agonist activity was determined for all compounds and is reported as an EC50 value, being that concentration of compound necessary to cause a half-maximal cellular activation.
`O=C(NCc1ccc(C(=O)N2CCCCc3ccccc32)cn1)Nc1c(F)cccc1F` [Example 3, 1-(6-[3-(2,6-Difluorophenyl)ureidomethyl]nicotinoyl)-2,3,4,5-tetrahydro-1H-1-benzazepine]: the concentration for a half-maximal effect (EC50) amounted to 300 nM.

Compound `Cc1cc(C(=O)N2CCCN(CCO)c3ccccc32)ccc1CNC(=O)Nc1c(F)cccc1F` [Example 17, 1-(4-[3-(2,6Difuorophenyl)ureidomethyl]-3-methylbenzoyl)-5-(2-hydroxyethyl)-2,3,4,5-tetrahydro-1H-1,5-benzodiazepine] registered an EC50 of 16 nM.

`CN1CCCN(C(=O)c2ccc(CNC(=O)Nc3c(F)cccc3F)c(Cl)c2)c2ccccc21` [Example 18, 1-(3-Chloro-4-[3-(2,6-difluorophenyl)ureidomethyl]benzoyl)-5-methyl-2,3,4,5-tetrahydro-1H-1,5-benzodiazepine] displayed an EC50 of 17 nM.

For the compound `COc1cccc(NC(=O)NCc2ccc(C(=O)N3CCCCc4ccccc43)cc2Cl)c1` [Example 4, 1-(3-Chloro-4-[3-(3-methoxyphenyl)ureidomethyl]benzoyl)-2,3,4,5-tetrahydro-1H-1-benzazepine], the response was half-maximal at 300 nM (EC50).

Take `Cc1cc(C(=O)N2CCCN(Cc3cccnc3)c3ccccc32)ccc1CNC(=O)Nc1c(F)cccc1F` [Example 16, 1-(4-[3-(2,6-Difluorophenyl)ureidomethyl]-3-methylbenzoyl)-5-(3-pyridyl)methyl-2,3,4,5-tetrahydro-1H-1,5-benzodiazepine]: a half-maximal effect (EC50) was put at 16 nM.

Compound `O=C(c1ccc(CNS(=O)(=O)Cc2ccccc2[N+](=O)[O-])c([N+](=O)[O-])c1)N1CCCCc2ccccc21` [Example 11, 1-(3-Nitro-4-[2-nitrobenyzlsulfonylaminomethyl]benzoyl)-2,3,4,5-tetrahydro-1H-1-benzazepine] showed a concentration giving a half-maximal response (EC50) of 21 nM.

In turn, `Cc1cc(C(=O)N2CCCNc3ccccc32)ccc1CNC(=O)Nc1c(F)cccc1F` [Example 15, 1-(4-[3-(2,6-Difluorophenyl)ureidomethyl]-3-methylbenzoyl)-2,3,4,5-tetrahydro-1H-1,5-bezazepine] came in with a concentration for a half-maximal effect (EC50) of 44 nM.

`O=C(NCc1ccc(C(=O)N2CCCCc3ccccc32)cc1Cl)Nc1ccccc1Cl` [Example 5, 1-(3-Chloro-4-[3-(2-chloropheny)ureidomethyl]benzoyl)-2,3,4,5-tetrahydro-1H-1-benzazepine] displayed an EC50 of 150 nM.

For `Cc1cc(C(=O)N2CCCCc3sccc32)ccc1CNC(=O)Nc1c(F)c(F)cc(F)c1F` [Example 27, 4-(3-Methyl-4-[3-(2,3,5,6-tetrafluorophenyl)ureidomethyl]benzoyl)-5,6,7,8-tetrahydro-4H-thieno[3,2-b]azepine], the EC50 came to 23 nM.

Take `N#C/N=C(\NCc1ccc(C(=O)N2CCCCc3ccccc32)cc1)Nc1c(F)cccc1F` [Example 2, 1-(4-[3-(2,6-Difluorophenyl)cyanoguanidinomethyl]benzoyl)-2,3,4,5-tetrahydro-1H-1-benzazepine]: the response was half-maximal at 160 nM (EC50).

On to `Cc1cc(CNC(=O)Nc2c(F)cccc2F)ccc1C(=O)N1CCCN(C)c2ccccc21` [Example 19, 1-(4-[3-(2,6-Difluorophenyl)uredomethyl]-2-methylbenzoyl)-5-methyl-2,3,4,5-tetrahydro-1H-1,5-benzodiazepine], for which the concentration for a half-maximal effect (EC50) came out at 40 nM.

As for `Cc1cc(C(=O)N2CCCCc3sccc32)ccc1CNC(=O)Nc1c(F)cccc1F` [Example 26, 4-(4-[3-(2,6-Difluorophenyl)ureidomethyl]-3-methylbenzoyl)-5,6,7,8-tetrahydro-4H-thieno[3,2-b]azepine], a half-maximal effect (EC50) was put at 10 nM.

Regarding `Cc1cc(C(=O)N2CCCCc3ccccc32)ccc1CNC(=O)NS(=O)(=O)c1ccccc1` [Example 8, 1-(3-Methyl-4-[3-(phenylsulfonyl)ureidomethyl]benzoyl)-2,3,4,5-tetrahydro-1H-1-benzazepine], the response was half-maximal at 220 nM (EC50).

Take `Cc1cc(C(=O)N2CCCCc3ccccc32)ccc1CNC(=O)Nc1ccc[nH]c1=O` [Example 9, 1-(3-Methyl-4-[3-(2-oxo-1,2-dihydropyrid-3-yl)ureidomethyl]benzoyl)-2,3,4,5-tetrahydro-1H-1-benzazepine]: the EC50 was determined as 50 nM.

Regarding `CN(C)c1cc(C(=O)N2CCCCc3ccccc32)ccc1CNC(=O)Nc1c(F)cccc1F` [Example 13, 1-(4-[3-(2,6-Difluorophenyl)ureldomethyl]-3-dimethylaminobenzoyl)-2,3,4,5-tetrahydro-1H-1-benzazepine], the 50% effective concentration (EC50) came to 38 nM.

`Cc1cc(C(=O)N2CCCCc3cccnc32)ccc1CNC(=O)Nc1c(F)cccc1F` [Example 24] yielded a 50% effective concentration (EC50) of 92 nM.

`Nc1cc(C(=O)N2CCCCc3ccccc32)ccc1CNC(=O)Nc1c(F)cccc1F` [Example 12, 1-(3-Amino-4-[3-(2,6 difluorophenyl)ureidomethyl]benzoyl)-2,3,4,5-tetrahydro-1H-1-benzazepine] showed an EC50 of 50 nM.

Turning to `Cc1cc(CNC(=O)Nc2c(F)cccc2F)ccc1C(=O)N1CCCCc2ccccc21` [Example 7, 1-(4-[3-(2,6-Difluorophenyl)ureidomethyl]-2-methylbenzoyl)-2,3,4,5-tetrahydro-1H-1-benzazepine], the 50% effective concentration (EC50) came to 24 nM.

As for `Cc1cc(C(=O)N2CCCCc3ccccc32)ccc1CNC(=O)Nc1c(F)cccc1F` [Example 10], the 50% effective concentration (EC50) came out at 4 nM.

In turn, `Cn1c(CNC(=O)Nc2c(F)cccc2F)ccc(C(=O)N2CCCCc3ccccc32)c1=O` [Example 22, 1-(6-[3-(2,6-Difluorophenyl)ureidomethyl]-1-methyl-2-oxo-1,2-dihydropyridyl-3-carbonyl)-2,3,4,5-tetrahydro-1H-1-benzazepine] had a concentration giving a half-maximal response (EC50) of 1000 nM.

As to `Cc1cc(C(=O)N2CCCCc3ccccc32)cc(C)c1CNC(=O)Nc1c(F)cccc1F` [Example 20], the EC50 turned out to be 17 nM.

In the case of `Cc1cc(C(=O)N2CCC[S+]([O-])c3ccccc32)ccc1CNC(=O)Nc1c(F)cccc1F` (stereo not shown) [Example 25, 5-(4-[3-(2,6-Difluorophenyl)ureidomethyl]-3-methylbenzoyl)-1-oxo-1λ^4-2,3,4,5-tetrahydro-1,5-benzothiazepine], the EC50 was determined as 280 nM.

As for `O=C(NCc1ccc(C(=O)N2CCCCc3ccccc32)c(Cl)n1)Nc1c(F)cccc1F` [Example 21, 1-(2-Chloro-6-[3-(2,6-difluorophenyl)ureidomethyl]nicotinoyl)-2,3,4,5-tetrahydro-1H-1-benzazepine], the response was half-maximal at 180 nM (EC50).

Regarding `O=C(NCc1ccc(C(=O)N2CCCCc3ccccc32)cc1)Nc1c(F)cccc1F` [Example 1, 1-(4-[3-(2,6-Difluorophenyl)ureidomethyl]benzoyl)-2,3,4,5-tetrahydro-1H-1-benzazepine], the response was half-maximal at 39 nM (EC50).

For `CCN1CCCN(C(=O)c2ccc(CNC(=O)Nc3c(F)cccc3F)c(C)c2)c2ccccc21` [Example 23, 1-(4-[3-(2,6-Difluorophenyl)ureidomethyl]-3-methylbenzoyl)-5-ethyl-2,3,4,5-tetrahydro-1H-1,5-benzodiazepine], a half-maximal effect (EC50) was put at 40 nM.

For `O=C(NCc1ccc(C(=O)N2CCCCc3ccccc32)c(F)c1)Nc1c(F)cccc1F` [Example 14, 1-(4-[3-(2,6-Difluorophenyl)ureidomethyl]-2-fluorobenzoyl)-2,3,4,5-tetrahydro-1H-1-benzazepine], the EC50 worked out at 240 nM.

As for `O=C(c1ccc(CNC(=S)Nc2c(F)cccc2F)c(Cl)c1)N1CCCCc2ccccc21` [Example 6, 1-(3-Chloro-4-[3-(2,6-difluorophenyl)thioureidomethyl]benzoyl)-2,3,4,5-tetrahydro-1H-1-benzazepine], the EC50 stood at 47 nM.

A further test relates to Brattleboro rat. Nature of the test: Determination of antidiuretic activity in vivo (urine output, Brattleboro rat). To be noted: Brattleboro rats, 1 mg/kg p.o. in methylcellulose, vs control animals. The protocol: Determination of Antidiuretic Activity in Vivo
The Brattleboro rat is a recognised model for vasopressin deficiency (for a review see FD Grant, “Genetic models of vasopressin deficiency”, Exp. Physiol. 85, 203S–209S, 2000). […] Compounds of the invention were administered to Brattleboro rats (0.1–10 mg/kg p.o. in methylcellulose. Urine was callected hourly and volumes were compared with control animals. Animals had free access to food and water throughout the experiment. Representative results are given in Table S. Results for Desmopressin are given for comparison.
Turning to `Cc1cc(C(=O)N2CCCCc3ccccc32)ccc1CNC(=O)NCC(=O)O` [Example 33, 1-(4-[N-(Carboxymethylcarbamoyl)aminomethyl]-3-methylbenzoyl)-2,3,4,5-tetrahydro-1H-1-benzazepine], the “% inhibition of urine output (at 1 hour)” value turned out to be 38%.

`Cc1cc(C(=O)N2CCCCc3ccccc32)ccc1CNC(=O)NCC(=O)N(C)C` [Example 35, 1-(4-[N-(2-Dimethylamino-2-oxoethylcarbamoyl)aminomethyl]-3-methylbenzoyl)-2,3,4,5-tetrahydro-1H-1-benzazepine]: the “% inhibition of urine output (at 1 hour)” value is 45–82%.

With `Cc1cc(C(=O)N2CCCCc3ccccc32)ccc1CNC(=O)N1CCC[C@H]1C(=O)N(C)C` [Example 39, 1-(2-Methyl-4-(2,3,4,5-tetrahydro-1-benzazepin-1-ylcarbonyl)benzylcarbamoyl)-L-proline-N,N-dimethylamide], the “% inhibition of urine output (at 1 hour)” value was 82%.

With `CCOC(=O)CNC(=O)NCc1ccc(C(=O)N2CCCCc3ccccc32)cc1C` [Example 32, 1-(4-[N-(2-Ethoxy-2-oxoethylcarbamoyl)aminomethyl]-3-methylbenzoyl)-2,3,4,5-tetrahydro-1H-1-benzazepine], the “% inhibition of urine output (at 1 hour)” value came to 74%.
